Results reported in patent publication US9586931B2 (Merck Sharp & Dohme Corp., priority 2012, dated 2017).

Target: T1, recombinant human GST-Syk (Homo sapiens, UniProt P43405)
T1 construct: purchased Carna Biosciences 08-176
Assay: Homogeneous Time-Resolved Fluorescence (HTRF) assay for the recombinant human Syk enzyme
Assay type: biochemical
Conditions: recombinant human GST-Syk 5 pM, ATP 25 μM, 10-dose titration 10 μM to 0.508 nM; read-out: rhSYK Activity IC50
Method: Syk inhibition may be determined using the following assay protocol:
Homogeneous Time-Resolved Fluorescence (HTRF) assay for the recombinant human Syk enzyme: A recombinant GST-hSyk fusion protein was used to measure potency of compounds to inhibit human Syk activity. […] Final volume of the reaction was 10 μL. Phosphorylation of the peptide was allowed to proceed for 45 minutes at room temperature. To quench the reaction and detect the phosphorylated product, 2 nM of a Europium-anti-phosphotyrosine antibody (Perkin Elmer #AD0161) and 70 nM SA-APC (Perkin-Elmer #CR130-100) were added together in 15 mM Tris pH 7.5, 40 mM EDTA, 0.01% tween 20. Final volume of the quenching solution was 10 μL. The resulting HTRF signal was measured after 30 minutes on an EnVision (Perkin-Elmer) reader using a time-resolved fluorescence protocol.

| Compound | IC50 |
| --- | --- |
| Cc1cc(Nc2cc(C(F)(F)F)ccn2)nc(-c2cn(C3CCC(C(N)=O)c4ccccc43)nn2)c1 (stereo not drawn) [Example 1.11, 4-[4-(4-methyl-6-{[4-(trifluoromethyl)pyridin-2-yl]amino}pyridin-2-yl)-1H-1,2,3-triazol-1-yl]-1,2,3,4-tetrahydronaphthalene-1-carboxamide] | 0.0203 µM |
| COc1ccc(C2CN(C(=O)C(C)n3cc(-c4cc(C)cc(Nc5cc(C(F)(F)F)ccn5)n4)nn3)CCS2)cc1 (stereo not drawn) [Example 1.45, 6-(1-{2-[2-(4-methoxyphenyl)thiomorpholin-4-yl]-1-methyl-2-oxoethyl}-1H-1,2,3-triazol-4-yl)-4-methyl-N-[4-(trifluoromethyl)pyridin-2-yl]pyridin-2-amine] | 0.172 µM |
| Cc1cc(Nc2cc(C(F)(F)F)ccn2)nc(-c2cn(C(C)C(=O)NCCc3cn(C)c4ccccc34)nn2)c1 (stereo not drawn) [Example 1.51, N-[2-(1-methyl-1H-indol-3-yl)ethyl]-2-[4-(4-methyl-6-{[4-(trifluoromethyl)pyridin-2-yl]amino}pyridin-2-yl)-1H-1,2,3-triazol-1-yl]propanamide] | 0.186 µM |
| Cc1cc(Nc2nccc(C(F)(F)F)n2)cc(-c2cn(C[C@@]3(O)CC[C@H](C(=O)O)C(C)(C)C3)nn2)c1 (racemic) [Example 4.1, Racemic syn-4-Hydroxy-2,2-dimethyl-4-((4-(3-methyl-5-((4-(trifluoromethyl)pyrimidin-2-yl)amino)phenyl)-1H-1,2,3-triazol-1-yl)methyl)cyclohexane carboxylic acid] | 0.0814 µM |
| Cc1cc(Nc2nccc(C(F)(F)F)n2)cc(-n2cc([Si](C)(C)C)nn2)c1 [Example 15.12, N-{3-methyl-5-[4-(trimethylsilyl)-1H-1,2,3-triazol-1-yl]phenyl}-4-(trifluoromethyl)pyrimidin-2-amine] | 0.284 µM |
| Cc1cc(Nc2cc(C(F)(F)F)ccn2)nc(-c2cn(C(C(N)=O)c3ccc(F)cc3)nn2)c1 (stereo not drawn) [Example 1.17, 2-(4-fluorophenyl)-2-[4-(4-methyl-6-{[4-(trifluoromethyl)pyridin-2-yl]amino}pyridin-2-yl)-1H-1,2,3-triazol-1-yl]acetamide] | 0.0044 µM |
| Cc1cc(Nc2cc(C(F)(F)F)ccn2)nc(-c2cn([C@H](C)C(=O)N3CCC[C@H]3C(=O)O)nn2)c1 [Example 3.12, 1-{(2R)-2-[4-(4-methyl-6-{[4-(trifluoromethyl)pyridin-2-yl]amino}pyridin-2-yl)-1H-1,2,3-triazol-1-yl]propanoyl}proline] | 0.105 µM |
| Cc1cc(Nc2cc(C(F)(F)F)ccn2)nc(-c2cn(C3CCC(C(=O)O)C(C)(C)C3)nn2)c1 (single isomer, unassigned) [Example 3.7, (R or S) 2,2-dimethyl-4-[4-(4-methyl-6-{[4-(trifluoromethyl)pyridin-2-yl]amino}pyridin-2-yl)-1H-1,2,3-triazol-1-yl]cyclohexanecarboxylic acid] | 0.0037 µM |
| Cc1cc(Nc2nccc(C(F)(F)F)n2)cc(-c2cn(C(C)C(O)CC#N)nn2)c1 (single isomer, unassigned) [Example 4.7, 3-hydroxy-4-[4-(3-methyl-5-{[4-(trifluoromethyl)pyrimidin-2-yl]amino}phenyl)-1H-1,2,3-triazol-1-yl]pentanenitrile] | 0.0158 µM |
| CCOc1ccnc(Nc2cc(C)cc(-c3cn(C(C)c4ccc(C(=O)O)cc4)nn3)n2)c1 (stereo not drawn) [Example 2.9, 4-[1-(4-{6-[(4-ethoxypyridin-2-yl)amino]-4-methylpyridin-2-yl}-1H-1,2,3-triazol-1-yl)ethyl]benzoic acid] | 0.0587 µM |
| Cc1cc(Nc2cc(F)ccn2)nc(-c2cn(C(C)c3ccc(C(=O)O)cc3)nn2)c1 (stereo not drawn) [Example 2.2, 4-[1-(4-{6-[(4-fluoropyridin-2-yl)amino]-4-methylpyridin-2-yl}-1H-1,2,3-triazol-1-yl)ethyl]benzoic acid] | 0.00888 µM |

Other lines, results leading:

| IC50 | Compound |
| --- | --- |
| 0.474 µM | Cc1cc(Nc2cc(C(F)(F)F)ccn2)nc(-c2cn(CCCO)nn2)c1 [Example 5.94, 3-[4-(4-methyl-6-{[4-(trifluoromethyl)pyridin-2-yl]amino}pyridin-2-yl)-1H-1,2,3-triazol-1-yl]propan-1-ol] |
| 0.0381 µM | Cc1cc(Nc2cc(C(F)(F)F)ccn2)nc(-c2cn(CCC(=O)O)nn2)c1 [Example 5.9, 3-[4-(4-methyl-6-{[4-(trifluoromethyl)pyridin-2-yl]amino}pyridin-2-yl)-1H-1,2,3-triazol-1-yl]propanoic acid] |
| 0.0158 µM | CCC(O)Cn1cc(-c2cc(C)cc(Nc3cc(C(F)(F)F)ccn3)n2)nn1 (racemic) [Example 5.5, 1-[4-(4-methyl-6-{[4-(trifluoromethyl)pyridin-2-yl]amino}pyridin-2-yl)-1H-1,2,3-triazol-1-yl]butan-2-ol] |
| 0.0037 µM | Cc1cc(Nc2cc(C(F)(F)F)ccn2)nc(-c2cn(C3CCC(C(=O)O)C(C)(C)C3)nn2)c1 (single isomer, unassigned) [Example 9.1, (R or S) 2,2-Dimethyl-4-[4-(4-methyl-6-{[4-(trifluoromethyl)pyridin-2-yl]amino}pyridin-2-yl)-1 H-1,2,3-triazol-1-yl]cyclohexanecarboxylic acid] |
| 0.0802 µM | Cc1cc(Nc2nccc(C(F)(F)F)n2)cc(-c2cn(CC(=O)N3[C@@H](C)COC[C@@H]3C)nn2)c1 (relative stereo) [Example 5.47, N-[3-(1-{2-[trans-3,5-dimethylmorpholin-4-yl]-2-oxoethyl}-1H-1,2,3-triazol-4-yl)-5-methylphenyl]-4-(trifluoromethyl)pyrimidin-2-amine] |
| 0.015 µM | Cc1cc(Nc2cc(C(F)(F)F)ccn2)nc(-c2cn(CC(C)(C)O)nn2)c1 [Example 5.97, 2-methyl-1-[4-(4-methyl-6-{[4-(trifluoromethyl)pyridin-2-yl]amino}pyridin-2-yl)-1H-1,2,3-triazol-1-yl]propan-2-ol] |
| 0.0099 µM | Cc1cc(Nc2ncc(F)c(C(F)F)n2)cc(-c2cn(CC3OC(=O)NC34CC4)nn2)c1 (single isomer, unassigned) [Example 7.34, 7-{[4-(3-{[4-(difluoromethyl)-5-fluoropyrimidin-2-yl]amino}-5-methylphenyl)-1H-1,2,3-triazol-1-yl]methyl}-6-oxa-4-azaspiro[2.4]heptan-5-one] |
| 0.525 µM | COC(=O)C1CCC(n2cc(-c3cc(C)cc(Nc4cc(C(F)(F)F)ccn4)n3)nn2)c2ccccc21 (racemic) [Example 5.25, methyl 4-[4-(4-methyl-6-{[4-(trifluoromethyl)pyridin-2-yl]amino}pyridin-2-yl)-1H-1,2,3-triazol-1-yl]-1,2,3,4-tetrahydronaphthalene-1-carboxylate] |
| 0.0072 µM | Cc1cc(Nc2cc(C(F)(F)F)ccn2)nc(-c2cn(CC(C)(O)CO)nn2)c1 (stereo not drawn) [Example 10.15, 2-methyl-3-[4-(4-methyl-6-{[4-(trifluoromethyl)pyridin-2-yl]amino}pyridin-2-yl)-1H-1,2,3-triazol-1-yl]propane-1,2-diol] |
| 0.0233 µM | Cc1cc(Nc2cc(C(F)(F)F)ccn2)nc(-c2cn(CC(O)C(C)(C)O)nn2)c1 (stereo not drawn) [Example 10.12, 3-methyl-1-[4-(4-methyl-6-{[4-(trifluoromethyl)pyridin-2-yl]amino}pyridin-2-yl)-1H-1,2,3-triazol-1-yl]butane-2,3-diol] |
